Experimental data: US20080234323A1, “Amorphous and Three Crystalline Forms of Rimonabant Hydrochloride” (priority 2005, published 2008)

Test: Solubility of different forms of Rimonabant hydrochloride in solvents
Assay type: physicochemical
Conditions: at R.T.
Text: • All the forms were soluble in alcohols such as methanol, ethanol etc.

Cc1c(C(=O)NN2CCCCC2)nn(-c2ccc(Cl)cc2Cl)c1-c1ccc(Cl)cc1 [Form II, 5-(4-chlorophenyl)-1-(2,4-dichlorophenyl)-4-methyl-N-(piperidin-1-yl)pyrazole-3-carboxamide]
solubility in acetone: partly soluble | solubility in acetonitrile: partly soluble
